Values of other authors in article PMC7032176 (Asian Journal of Pharmaceutical Sciences, 2018).

Experiments:
[1] = at 25 °C

## CC(C)(Sc1cc(C(C)(C)C)c(O)c(C(C)(C)C)c1)Sc1cc(C(C)(C)C)c(O)c(C(C)(C)C)c1 [Probucol]
[1]
  water solubility: about 5 ng/ml
other
  oral bioavailability: up to 6%
